Reference: PubChem BioAssay (NCI)
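Here, GI50 denotes the concentration required for 50% inhibition of growth. TGI denotes the concentration required for complete inhibition of growth.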

Columns and labels:
Assay in all cases: NCI-60 cell line screen, 384-well format
HOP-62 NSCLC = system: HOP-62 NSCLC
HOP-92 NSCLC = system: HOP-92 NSCLC
OVCAR-5 ovarian = system: OVCAR-5 ovarian
MDA-MB-468 breast = system: MDA-MB-468 breast
BT-549 breast = system: BT-549 breast
U251 glioblastoma = system: U251 glioblastoma
IGROV1 ovarian = system: IGROV1 ovarian
SR leukemia = system: SR leukemia
SNB-19 CNS = system: SNB-19 CNS
MOLT-4 leukemia = system: MOLT-4 leukemia
786-0 renal = system: 786-0 renal
NCI-H226 lung = system: NCI-H226 lung
A549 NSCLC = system: A549 NSCLC
SNB-75 CNS = system: SNB-75 CNS
T-47D breast = system: T-47D breast
HT29 colon = system: HT29 colon
HCT-15 colon = system: HCT-15 colon
MDA-MB-231 breast = system: MDA-MB-231 breast
SK-MEL-5 melanoma = system: SK-MEL-5 melanoma
SW-620 colon = system: SW-620 colon
HCT-116 colon = system: HCT-116 colon
NCI-H522 lung = system: NCI-H522 lung
NCI-H23 lung = system: NCI-H23 lung
NCI-H460 NSCLC = system: NCI-H460 NSCLC
OVCAR-4 ovarian = system: OVCAR-4 ovarian
EKVX NSCLC = system: EKVX NSCLC
KM12 colon = system: KM12 colon
PC-3 prostate = system: PC-3 prostate
RPMI-8226 leukemia = system: RPMI-8226 leukemia
OVCAR-8 ovarian = system: OVCAR-8 ovarian
SF-539 CNS = system: SF-539 CNS
HL-60(TB) leukemia = system: HL-60(TB) leukemia
CCRF-CEM leukemia = system: CCRF-CEM leukemia
RXF 393 renal = system: RXF 393 renal
MCF7 breast = system: MCF7 breast
COLO 205 colon = system: COLO 205 colon
NCI/ADR-RES ovarian = system: NCI/ADR-RES ovarian
NCI-H322M lung = system: NCI-H322M lung
M14 melanoma = system: M14 melanoma
OVCAR-3 ovarian = system: OVCAR-3 ovarian
HCC-2998 colon = system: HCC-2998 colon
SK-OV-3 ovarian = system: SK-OV-3 ovarian
TK-10 renal = system: TK-10 renal
LOX IMVI melanoma = system: LOX IMVI melanoma
SF-295 CNS = system: SF-295 CNS
HS 578T breast = system: HS 578T breast
UO-31 renal = system: UO-31 renal
MDA-MB-435 melanoma = system: MDA-MB-435 melanoma
SN12C renal = system: SN12C renal
SF-268 CNS = system: SF-268 CNS
DU-145 prostate = system: DU-145 prostate
MALME-3M melanoma = system: MALME-3M melanoma

For `COc1ccc(-c2cc3c(C)nc(N)nc3n(C3CCC(OCCO)CC3)c2=O)cn1` (centres undefined), which GI50 (HOP-62 NSCLC) is on record?
Its GI50 is 178 nM.

What about the TGI (HOP-62 NSCLC) of the same compound?
The TGI was 1500 nM.

And the GI50 (HOP-92 NSCLC)?
The GI50 was 43.1 nM.

What about the TGI (HOP-92 NSCLC) of the same compound?
The TGI was 302 nM.

What about the GI50 (OVCAR-5 ovarian) of the same compound?
Its GI50 is 145 nM.

And the TGI (OVCAR-5 ovarian)?
Its TGI is 1750 nM.

What about the GI50 (MDA-MB-468 breast) of the same compound?
The GI50 was 26.7 nM.

And the TGI (MDA-MB-468 breast)?
The TGI was 146 nM.

What about the GI50 (BT-549 breast) of the same compound?
The GI50 was 114 nM.

And the TGI (BT-549 breast)?
The TGI was 630 nM.

What about the GI50 (U251 glioblastoma) of the same compound?
Its GI50 is 490 nM.

What about the TGI (U251 glioblastoma) of the same compound?
Its TGI is 1980 nM.

What about the GI50 (IGROV1 ovarian) of the same compound?
Its GI50 is 24.1 nM.

And the TGI (IGROV1 ovarian)?
The TGI was 80.3 nM.

And the GI50 (SR leukemia)?
Its GI50 is 106 nM.

What about the TGI (SR leukemia) of the same compound?
Its TGI is 304 nM.

And the GI50 (SNB-19 CNS)?
The GI50 was 896 nM.

And the TGI (SNB-19 CNS)?
The TGI was 2260 nM.

And the GI50 (MOLT-4 leukemia)?
The GI50 was 31.8 nM.

And the TGI (MOLT-4 leukemia)?
The TGI was 160 nM.

And the GI50 (786-0 renal)?
Its GI50 is 268 nM.

What about the TGI (786-0 renal) of the same compound?
Its TGI is 1530 nM.

What about the GI50 (NCI-H226 lung) of the same compound?
Its GI50 is 191 nM.

And the TGI (NCI-H226 lung)?
Its TGI is 960 nM.

What about the GI50 (A549 NSCLC) of the same compound?
The GI50 was 173 nM.

What about the TGI (A549 NSCLC) of the same compound?
The TGI was 1100 nM.

What about the GI50 (SNB-75 CNS) of the same compound?
Its GI50 is 24 nM.

And the TGI (SNB-75 CNS)?
Its TGI is 113 nM.

What about the GI50 (T-47D breast) of the same compound?
The GI50 was 19.9 nM.

And the TGI (T-47D breast)?
The TGI was 84.6 nM.

What about the GI50 (HT29 colon) of the same compound?
Its GI50 is 228 nM.

What about the TGI (HT29 colon) of the same compound?
Its TGI is 5150 nM.

What about the GI50 (HCT-15 colon) of the same compound?
Its GI50 is 89.8 nM.

What about the TGI (HCT-15 colon) of the same compound?
The TGI was 12800 nM.

What about the GI50 (MDA-MB-231 breast) of the same compound?
The GI50 was 229 nM.

And the TGI (MDA-MB-231 breast)?
The TGI was 2370 nM.

What about the GI50 (SK-MEL-5 melanoma) of the same compound?
The GI50 was 88.2 nM.

What about the TGI (SK-MEL-5 melanoma) of the same compound?
The TGI was 261 nM.

And the GI50 (SW-620 colon)?
The GI50 was 315 nM.

What about the TGI (SW-620 colon) of the same compound?
Its TGI is over 100000 nM.

And the GI50 (HCT-116 colon)?
The GI50 was 260 nM.

What about the TGI (HCT-116 colon) of the same compound?
The TGI was 10500 nM.

And the GI50 (NCI-H522 lung)?
The GI50 was 71.6 nM.

What about the TGI (NCI-H522 lung) of the same compound?
The TGI was 1200 nM.

And the GI50 (NCI-H23 lung)?
Its GI50 is 132 nM.

And the TGI (NCI-H23 lung)?
The TGI was 5990 nM.

And the GI50 (NCI-H460 NSCLC)?
Its GI50 is 40.9 nM.

And the TGI (NCI-H460 NSCLC)?
The TGI was 11600 nM.

And the GI50 (OVCAR-4 ovarian)?
Its GI50 is 90.2 nM.

And the TGI (OVCAR-4 ovarian)?
Its TGI is 854 nM.

What about the GI50 (EKVX NSCLC) of the same compound?
The GI50 was 62.3 nM.

What about the TGI (EKVX NSCLC) of the same compound?
Its TGI is 447 nM.

And the GI50 (KM12 colon)?
The GI50 was 318 nM.

And the TGI (KM12 colon)?
Its TGI is 33200 nM.

And the GI50 (PC-3 prostate)?
The GI50 was 41.8 nM.

And the TGI (PC-3 prostate)?
The TGI was 434 nM.

What about the GI50 (RPMI-8226 leukemia) of the same compound?
The GI50 was 28.7 nM.

And the TGI (RPMI-8226 leukemia)?
Its TGI is 105 nM.

And the GI50 (OVCAR-8 ovarian)?
Its GI50 is 245 nM.

What about the TGI (OVCAR-8 ovarian) of the same compound?
The TGI was 6520 nM.

And the GI50 (SF-539 CNS)?
The GI50 was 185 nM.

And the TGI (SF-539 CNS)?
The TGI was 1270 nM.

What about the GI50 (HL-60(TB) leukemia) of the same compound?
The GI50 was 17.9 nM.

What about the TGI (HL-60(TB) leukemia) of the same compound?
The TGI was 191 nM.

What about the GI50 (CCRF-CEM leukemia) of the same compound?
Its GI50 is 59.7 nM.

And the TGI (CCRF-CEM leukemia)?
The TGI was 1150 nM.

What about the GI50 (RXF 393 renal) of the same compound?
Its GI50 is 37 nM.

What about the TGI (RXF 393 renal) of the same compound?
The TGI was 199 nM.

What about the GI50 (MCF7 breast) of the same compound?
Its GI50 is 20.7 nM.

And the TGI (MCF7 breast)?
Its TGI is 12700 nM.

And the GI50 (COLO 205 colon)?
Its GI50 is 126 nM.

What about the TGI (COLO 205 colon) of the same compound?
Its TGI is 1350 nM.

And the GI50 (NCI/ADR-RES ovarian)?
Its GI50 is 241 nM.

What about the TGI (NCI/ADR-RES ovarian) of the same compound?
Its TGI is 2270 nM.

What about the GI50 (NCI-H322M lung) of the same compound?
The GI50 was 149 nM.

What about the TGI (NCI-H322M lung) of the same compound?
Its TGI is 13300 nM.

What about the GI50 (M14 melanoma) of the same compound?
The GI50 was 97.8 nM.

What about the TGI (M14 melanoma) of the same compound?
Its TGI is 4560 nM.

What about the GI50 (OVCAR-3 ovarian) of the same compound?
Its GI50 is 53 nM.

And the TGI (OVCAR-3 ovarian)?
Its TGI is 318 nM.

And the GI50 (HCC-2998 colon)?
Its GI50 is 222 nM.

What about the TGI (HCC-2998 colon) of the same compound?
The TGI was 1670 nM.

And the GI50 (SK-OV-3 ovarian)?
Its GI50 is 80.5 nM.

And the TGI (SK-OV-3 ovarian)?
Its TGI is 394 nM.

What about the GI50 (TK-10 renal) of the same compound?
Its GI50 is 65.8 nM.

And the TGI (TK-10 renal)?
The TGI was 408 nM.

What about the GI50 (LOX IMVI melanoma) of the same compound?
Its GI50 is 222 nM.

What about the TGI (LOX IMVI melanoma) of the same compound?
Its TGI is 1150 nM.

What about the GI50 (SF-295 CNS) of the same compound?
The GI50 was 45.5 nM.

And the TGI (SF-295 CNS)?
Its TGI is 257 nM.

What about the GI50 (HS 578T breast) of the same compound?
The GI50 was 42.9 nM.

What about the TGI (HS 578T breast) of the same compound?
The TGI was 235 nM.

And the GI50 (UO-31 renal)?
The GI50 was 56.2 nM.

And the TGI (UO-31 renal)?
The TGI was 856 nM.

What about the GI50 (MDA-MB-435 melanoma) of the same compound?
Its GI50 is 220 nM.

What about the TGI (MDA-MB-435 melanoma) of the same compound?
Its TGI is 1610 nM.

What about the GI50 (SN12C renal) of the same compound?
The GI50 was 82.3 nM.

What about the TGI (SN12C renal) of the same compound?
The TGI was over 100000 nM.

And the GI50 (SF-268 CNS)?
The GI50 was 231 nM.

What about the TGI (SF-268 CNS) of the same compound?
Its TGI is 1730 nM.

And the GI50 (DU-145 prostate)?
Its GI50 is 188 nM.

What about the TGI (DU-145 prostate) of the same compound?
The TGI was 23800 nM.

And the GI50 (MALME-3M melanoma)?
The GI50 was 24.7 nM.

What about the TGI (MALME-3M melanoma) of the same compound?
The TGI was 143 nM.
